According to patent publication US10759721B2, “Deuterated CFTR potentiators” (Vertex Pharmaceuticals (Europe) Limited, priority 2015, dated 2020):
Where two headings read alike, the source gives them in different places. Blank lines part the entries; values can stand above or below the compound they belong to.

Tests used:
human CYP3A4 Supersomes = target: T1, human CYP3A4 Supersomes (Homo sapiens, UniProt P08684); assay: Metabolic stability in human CYP3A4 Supersomes; assay type: in vitro ADME; conditions: for average increase in t1/2 / apparent intrinsic clearance ratio: human CYP3A4 Supersomes; for Clint, app rCYP: human CYP3A4 Supersomes 50 pmol/mL, 0.25 μM test compound, CL int = (0.693/in vitro t1/2)(mL incubation volume/pmol P450)
T1 construct: purchased BD Biosciences
Method: (§1) Stock solutions (7.5 mM) of Compound 100 and Compound A were prepared in DMSO. The 7.5 mM stock solutions were diluted to 12.5 μM in acetonitrile (ACN). The human CYP3A4 Supersomes™ (2000 pmol/mL, purchased from BD Biosciences™) were diluted to 62.5 pmol/mL in 0.1 M potassium phosphate buffer, pH 7.4, containing 3 mM MgCl2. The diluted supersomes were added to wells of a 96-well polypropylene plate in triplicate. A 10 μL aliquot of the 12.5 μM test compound was added to the supersomes and the mixture was pre-warmed for 10 minutes. Reactions were initiated by addition of pre-warmed NADPH solution. The final reaction volume was 0.5 mL and contained 50 pmol/mL CYP3A4 Supersomes™, 0.25 μM test compound, and 2 mM NADPH in 0.1 M potassium phosphate buffer, pH 7.4, and 3 mM MgCl2. The reaction mixtures were incubated at 37° C., and 50 μL aliquots were removed at 0, 3, 7, 10, 20 and 30 minutes and added to 96-well plates which contained 125 μL of ice-cold ACN with internal standard to stop the reactions. The plates were stored at 4° C. for 20 minutes after which 75 μL of water was added to the wells of the plate before centrifugation to pellet precipitated proteins. Supernatants were transferred to another 96-well plate and analyzed for amounts of parent remaining by LC-MS/MS using an AB Sciex QTrap 5500 mass spectrometer.
(§2) The in vitro half-lives (t1/2 values) for test compounds were calculated from the slopes of the linear regression of LN (% parent remaining) vs incubation time relationship: in vitro t1/2=0.693/k, where k=−[slope of linear regression of LN (% parent remaining) vs incubation time].
as §1, with “Compound 120” for “Compound 100”, “Compound B” for “Compound A”

CYP3A4 = target: T2, CYP3A4 (Homo sapiens, UniProt P08684); assay: Metabolic stability in human CYP3A4 Supersomes; assay type: in vitro ADME; conditions: recombinant human CYP3A4 Supersomes, pH 7.4, human CYP3A4 Supersomes, read-out: calculated average half-life
T2 construct: purchased BD Biosciences
Method: as §1, §2
as §1, with “Compound 120” for “Compound 100”, “Compound B” for “Compound A”

[1] = system: patients with cystic fibrosis carrying at least one copy of the G551D-CFTR mutation; conditions: phase III trials; cited from earlier work

T1 sequence (P08684 whole entry): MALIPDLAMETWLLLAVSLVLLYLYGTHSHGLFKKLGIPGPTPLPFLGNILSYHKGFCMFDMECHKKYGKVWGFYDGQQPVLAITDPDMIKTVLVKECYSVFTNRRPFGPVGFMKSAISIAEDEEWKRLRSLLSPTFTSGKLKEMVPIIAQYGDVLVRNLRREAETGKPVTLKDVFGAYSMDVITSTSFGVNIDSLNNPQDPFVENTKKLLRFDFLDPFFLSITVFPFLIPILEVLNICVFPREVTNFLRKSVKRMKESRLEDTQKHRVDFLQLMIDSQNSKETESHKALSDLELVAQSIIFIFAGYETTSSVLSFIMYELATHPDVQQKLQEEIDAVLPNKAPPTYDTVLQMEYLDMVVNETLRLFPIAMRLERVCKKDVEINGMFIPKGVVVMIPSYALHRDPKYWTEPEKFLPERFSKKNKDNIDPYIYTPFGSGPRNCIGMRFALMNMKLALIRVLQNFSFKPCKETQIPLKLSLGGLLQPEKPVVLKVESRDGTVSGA
T2 sequence (P08684 whole entry): as above

SMILES: [2H]C([2H])([2H])C(c1ccc(NC(=O)c2c[nH]c3ccccc3c2=O)cc1O)(C([2H])([2H])[2H])C([2H])([2H])[2H] [Compound 100, N-(3-Hydroxy-4-(2-(methyl-d3)propan-2-yl-1,1,1,3,3,3-d6)phenyl)-4-oxo-1,4-dihydroquinoline-3-carboxamide]
average increase in t1/2 (human CYP3A4 Supersomes; Compound 100 relative to Compound A): 75%
Clint, app rCYP (human CYP3A4 Supersomes; Table 2): 0.26 ± 0.00 µL/min/pmol
apparent intrinsic clearance ratio (human CYP3A4 Supersomes; ratio 100/A): 0.57
stability in Human CYP3A4 Supersomes relative to Compound A (human CYP3A4 Supersomes; relative to Compound A): more stable
half-life at 0.25 μM (CYP3A4; text of Example 3): 26.5 min

SMILES: CC(C)(C)c1cc(C(C)(C)C)c(NC(=O)c2c[nH]c3ccccc3c2=O)cc1O [VX-770, N-(2,4-di-tert-butyl-5-hydroxyphenyl)-4-oxo-1,4-dihydroquinoline-3-carboxamide]
improvement in lung function and other key indicators of the disease (sweat chloride levels, likelihood of pulmonary exacerbations, body weight) [1]: marked levels of improvement

Now from value to compound:

average increase in t1/2 (human CYP3A4 Supersomes; Compound 120 relative to Compound B): 42%
Clint, app rCYP (human CYP3A4 Supersomes; Table 3): 0.34 ± 0.00 µL/min/pmol
apparent intrinsic clearance ratio (human CYP3A4 Supersomes; ratio 120/B): 0.71
stability in Human CYP3A4 Supersomes relative to Compound B (human CYP3A4 Supersomes; relative to Compound B): more stable
half-life at 0.25 μM (CYP3A4; Example 4): 20.6 min
SMILES: [2H]C([2H])([2H])C(c1cc(C(F)(F)F)c(NC(=O)c2c[nH]c3ccccc3c2=O)cc1O)(C([2H])([2H])[2H])C([2H])([2H])[2H] [Compound 120, N-(5-hydroxy-4-(2-(methyl-d3)propan-2-yl-1,1,1,3,3,3-d6)-2-(trifluoromethyl)phenyl)-4-oxo-1,4-dihydroquinoline-3-carboxamide]

Clint, app rCYP (human CYP3A4 Supersomes; Table 3): 0.48 ± 0.06 µL/min/pmol
half-life at 0.25 μM (CYP3A4; Example 4): 14.5 min
SMILES: CC(C)(C)c1cc(C(F)(F)F)c(NC(=O)c2c[nH]c3ccccc3c2=O)cc1O [Compound B, N-(4-(tert-butyl)-5-hydroxy-2-(trifluoromethyl)phenyl)-4-oxo-1,4-dihydroquinoline-3-carboxamide, reference compound]

Clint, app rCYP (human CYP3A4 Supersomes; Table 2): 0.46 ± 0.02 µL/min/pmol
half-life at 0.25 μM (CYP3A4; text of Example 3): 15.1 min
SMILES: CC(C)(C)c1ccc(NC(=O)c2c[nH]c3ccccc3c2=O)cc1O [Compound A, N-(4-(tert-butyl)-3-hydroxyphenyl)-4-oxo-1,4-dihydroquinoline-3-carboxamide, reference compound]
